# Experimental data as given in patent publication US8053418B2, “Anti-penicillin resistant pneumococci agent and novel 16-membered macrolide derivative” (Microbial Chemistry Research Foundation, priority 2005, dated 2011).
# How the values were obtained:
# Assay type in all cases: cell-based
# [1] = test system: Streptococcus pneumoniae IMC B-1235 (PRSP); test: Antimicrobial activity test (MIC), clinical isolate IMC B-1235
# Description: (§1) Using Streptococcus pneumoniae that include clinical isolates of PRSP, the antimicrobial activity of each of the prepared anti-PRSP agents was measured in accordance with the “determination method of minimum inhibitory concentration of drug against bacteria” of Japanese Society of Chemotherapy (for re-revised version, see Chemotherapy 29; 76, 1981).
# (§2) 11 test strains of Streptococcus pneumoniae including IMC B-0919 are all clinical isolates, of which 2 strains, IMC B-0921 and IMC B-1229, are classified into penicillin susceptible Streptococcus pneumoniae (PSSP) and the remaining 9 strains are classified into penicillin-resistant Streptococcus pneumoniae (PRSP) (according to NCCLS standards).
# [2] = test system: Streptococcus pneumoniae IMC B-1236 (PRSP); test: Antimicrobial activity test (MIC), clinical isolate IMC B-1236
# Description: as §1, §2
# [3] = test system: Streptococcus pneumoniae IMC B-1231 (PRSP); test: Antimicrobial activity test (MIC), clinical isolate IMC B-1231
# Description: as §1, §2
# [4] = test system: Streptococcus pneumoniae IMC B-1229 (PSSP); test: Antimicrobial activity test (MIC), clinical isolate IMC B-1229
# Description: as §1, §2
# [5] = test system: Streptococcus pneumoniae IMC B-0920 (PRSP); test: Antimicrobial activity test (MIC), clinical isolate IMC B-0920
# Description: as §1, §2
# [6] = test system: Streptococcus pneumoniae IMC B-1233 (PRSP); test: Antimicrobial activity test (MIC), clinical isolate IMC B-1233
# Description: as §1, §2
# [7] = test system: Streptococcus pneumoniae IMC B-0921 (PSSP); test: Antimicrobial activity test (MIC), clinical isolate IMC B-0921
# Description: as §1, §2
# [8] = test system: Streptococcus pneumoniae IMC B-1234 (PRSP); test: Antimicrobial activity test (MIC), clinical isolate IMC B-1234
# Description: as §1, §2
# [9] = test system: Streptococcus pneumoniae IMC B-0919 (PRSP); test: Antimicrobial activity test (MIC), clinical isolate IMC B-0919
# Description: as §1, §2
# [10] = test system: Streptococcus pneumoniae IMC B-1232 (PRSP); test: Antimicrobial activity test (MIC), clinical isolate IMC B-1232
# Description: as §1, §2
# [11] = test system: Streptococcus pneumoniae IMC B-0922 (PRSP); test: Antimicrobial activity test (MIC), clinical isolate IMC B-0922
# Description: as §1, §2
# [12] = PRSP clinical isolate IMC B-1235
# [13] = Streptococcus pneumoniae IMC B-1235, PRSP
# [14] = PRSP clinical isolate IMC B-1236
# [15] = Streptococcus pneumoniae IMC B-1236, PRSP
# [16] = PRSP clinical isolate IMC B-1231
# [17] = Streptococcus pneumoniae IMC B-1231, PRSP
# [18] = PSSP clinical isolate IMC B-1229
# [19] = Streptococcus pneumoniae IMC B-1229, PSSP
# [20] = PRSP clinical isolate IMC B-0920
# [21] = Streptococcus pneumoniae IMC B-0920, PRSP
# [22] = PRSP clinical isolate IMC B-1233
# [23] = Streptococcus pneumoniae IMC B-1233, PRSP
# [24] = PSSP clinical isolate IMC B-0921
# [25] = Streptococcus pneumoniae IMC B-0921, PSSP
# [26] = PRSP clinical isolate IMC B-1234
# [27] = Streptococcus pneumoniae IMC B-1234, PRSP
# [28] = PRSP clinical isolate IMC B-0919
# [29] = Streptococcus pneumoniae IMC B-0919, PRSP
# [30] = PRSP clinical isolate IMC B-1232
# [31] = Streptococcus pneumoniae IMC B-1232, PRSP
# [32] = PRSP clinical isolate IMC B-0922
# [33] = Streptococcus pneumoniae IMC B-0922, PRSP
Structure (SMILES),"MIC [1, 12] [µg/mL]","MIC [1, 13] [µg/mL]","MIC [2, 14] [µg/mL]","MIC [2, 15] [µg/mL]","MIC [3, 16] [µg/mL]","MIC [3, 17] [µg/mL]","MIC [4, 18] [µg/mL]","MIC [4, 19] [µg/mL]","MIC [5, 20] [µg/mL]","MIC [5, 21] [µg/mL]","MIC [6, 22] [µg/mL]","MIC [6, 23] [µg/mL]","MIC [7, 24] [µg/mL]","MIC [7, 25] [µg/mL]","MIC [8, 26] [µg/mL]","MIC [8, 27] [µg/mL]","MIC [9, 28] [µg/mL]","MIC [9, 29] [µg/mL]","MIC [10, 30] [µg/mL]","MIC [11, 32] [µg/mL]",also measured
CCC1OC(=O)CCC(C)C(OC2OC(C)CC(N(C)C)C2O)C(CC=O)CC(C)C(=O)C=CC(C)=CC1COC(=O)NCc1ccc(OC)cc1 (stereo not shown) [MKT-1011],6.25,6.25,1.56,1.56,50,50,0.2,0.2,0.1,0.1,0.1,0.1,0.1,0.1,0.1,0.1,0.1,0.1,0.1,0.2,"MIC [10, 31]: 0.1 µg/mL; MIC [11, 33]: 0.2 µg/mL"
CCC1OC(=O)CCC(C)C(OC2OC(C)CC(N(C)C)C2O)C(CC=O)CC(C)C(=O)C=CC(C)=CC1COC(=O)Cc1ccccc1 (stereo not shown) [MKT-2005],1.56,–,3.13,–,0.78,–,0.1,–,0.2,–,<0.025,–,0.05,–,0.1,–,0.2,–,0.05,0.1,–
CC=CC=CC(=O)OCC1C=C(C)C=CC(=O)C(C)CC(CC=O)C(OC2OC(C)CC(N(C)C)C2O)C(C)CCC(=O)OC1CC (stereo not shown) [MKT-2110],–,50,–,12.5,–,25,–,0.20,–,0.20,–,0.10,–,0.10,–,0.10,–,0.05,–,–,"MIC [10, 31]: 0.20 µg/mL; MIC [11, 33]: 0.10 µg/mL"
CCC1OC(=O)CCC(C)C(OC2OC(C)CC(N(C)C)C2O)C(CC=O)CC(C)C(=O)C=CC(C)=CC1CI (stereo not shown) [MKT-3001],50,–,25,–,>50,–,0.39,–,0.2,–,0.2,–,0.2,–,0.2,–,0.39,–,0.1,0.2,–
CCC1OC(=O)CCC(C)C(OC2OC(C)CC(N(C)C)C2O)C(CC=O)CC(C)C(=O)C=CC(C)=CC1CN=[N+]=[N-] (stereo not shown) [MKT-3004],50,–,50,–,25,–,0.1,–,0.1,–,0.2,–,0.1,–,0.2,–,0.2,–,0.2,0.1,–
CCC1OC(=O)CCC(C)C(OC2OC(C)CC(N(C)C)C2O)C(CC=O)CC(C)C(=O)C=CC(C)=CC1CN (stereo not shown) [MKT-3005],100,–,100,–,50,–,0.2,–,1.56,–,0.05,–,0.1,–,0.2,–,0.78,–,0.2,0.39,–
CCC1OC(=O)CCC(C)C(OC2OC(C)CC(N(C)C)C2O)C(CC=O)CC(C)C(=O)C=CC(C)=CC1CCl (stereo not shown) [MKT-3007],–,50,–,50,–,25,–,0.20,–,0.20,–,0.20,–,0.10,–,0.20,–,0.20,–,–,"MIC [10, 31]: 0.20 µg/mL; MIC [11, 33]: 0.20 µg/mL"
CCC1OC(=O)CCC(C)C(OC2OC(C)CC(N(C)C)C2O)C(CC=O)CC(C)C(=O)C=CC(C)=CC1CN(C)C (stereo not shown) [MKT-3101],25,–,50,–,12.5,–,0.2,–,0.78,–,0.2,–,0.2,–,0.2,–,0.78,–,0.2,0.39,–
CCC1OC(=O)CCC(C)C(OC2OC(C)CC(N(C)C)C2O)C(CC=O)CC(C)C(=O)C=CC(C)=CC1CNC(C)=O (stereo not shown) [MKT-3201],12.5,–,50,–,1.56,–,0.2,–,0.78,–,0.39,–,0.2,–,0.39,–,0.78,–,0.39,0.39,–
CCC1OC(=O)CCC(C)C(OC2OC(C)CC(N(C)C)C2O)C(CC=O)CC(C)C(=O)C=CC(C)=CC1CNC(=O)Cc1cccnc1 (stereo not shown) [MKT-3216],–,12.5,–,12.5,–,6.25,–,0.10,–,0.10,–,0.05,–,0.10,–,0.05,–,0.10,–,–,"MIC [10, 31]: 0.05 µg/mL; MIC [11, 33]: 0.10 µg/mL"
